According to patent publication US11884649B2, “IRE1α inhibitors and uses thereof” (The Regents of the University of California, priority 2020, dated 2024):

What was measured:
[1] = tested on: lysate kinases (HEK293/HCT116 lysate mixture); experiment: Kinome selectivity profiling by kinobead competition; assay type: binding; conditions: 10 μM compound
Method: Prior to conducting cellular studies with PAIRs, we first performed comprehensive kinome selectivity profiling using a chemical proteomic method (FIG. 4A).^41-43 To do this, we measured the ability of 1, 2, 5, 6, PAIR, and KIRA9 to compete with lysate kinases for binding to a mixture of bead-immobilized, nonselective kinase inhibitors (kinobeads). Each compound (10 μM) was incubated with a standard kinobead matrix and a HEK293/HCT116 lysate mixture and competed kinases were quantified using mass spectrometry.
Kinome Profiling and Selectivity Kinobead Enrichment Protocol
HEK293 and HCT116 cells were plated on 15 cm plates until 90% confluent and lysed into 750 μL modified RIPA buffer (50 mM Tris, 150 mM NaCl, 10 mM NaF, 1% NP40, 0.25% sodium deoxycholate, 5% glycerol, pH 7.8) containing protease inhibitor (Pierce Protease Inhibitor Tablets and 1 mM PMSF) and phosphatase inhibitor (Phosphatase inhibitor cocktail 2 and 3, Sigma Aldrich). Protein content was determined via Bradford assay. […]
Tryptic peptides were separated using a nanoAcquity UPLC instrument with 10 cm fused silica capillary columns made in house and packed with 5 μm 120 Å reverse-phase C18 beads (ReproSil-Pur®, Maisch). […] MS data was analyzed using a Thermo Orbitrap Fusion Tribrid. Raw files were analyzed using MaxQuant (Andromeda) Version 1.6.0.16. […]

[2] = tested on: INS-1 cells expressing IRE1α under Dox control; experiment: RNA-Seq profiling of INS-1 cells conditionally overexpressing IRE1α; assay type: cell-based, rat; conditions: 20 μM, 5 ng/mL Dox
Method: Next, to systematically compare the transcriptomic effects of PAIR1 and KIRA9, we profiled INS-1 cells that conditionally overexpress IRE1α by RNA Seq. As above (FIGS. 4A-4K), IRE1α overexpression was induced with doxycycline (Dox) and cells were treated with either DMSO, or equivalent concentrations of PAIR1 or KIRA9. Total RNA was submitted for sequencing across entire transcripts. The dense coverage of this dataset enabled us to distinguish the endogenous rat IRE1α expression from the induced mouse IRE1α transgene; there was greater than 10-fold induction of transgene expression with doxycycline (FIG. 22). Dense coverage across the Xbp1 locus also enabled quantification of XBP1 splicing based on the reduced density of reads mapping to the noncanonical XBP1 intron. Consistent with measurements of XBP1 splicing by isoform-specific PCR (FIG. 4C), overexpression induced XBP1 splicing was preserved in both DMSO and PAIR1-treated cells, but blocked in KIRA9-treated cells at 4 hours (FIGS. 23A-23B).
RNA Isolation and Preparation
Isogenic IRE1α-overexpressing INS-1 cells were pre-treated with inhibitors for 1 h followed by addition of Dox 5 ng/mL for 4 h and 24 h as indicated. All conditions for RNAseq analysis were performed in three biological replicates. RNA was isolated from whole cells using Qiagen RNeasy with gDNA eliminator kit. RNA purity was determined using a NanaPhotometer spectrometer (IMPLEN, CA, USA). RNA integrity and quantitation were assessed using the RNA Nano 6000 Assay Kit of the Bioanalyzer 2100 system (Agilent Technologies, CA, USA).
Quantification of Gene Expression Level
HTSeq v0.6.1 was used to count the reads numbers mapped to each gene. And then FPKM of each gene was calculated based on the length of the gene and reads count mapped to this gene.
Differential Expression Analysis
Differential expression analysis of two conditions/groups (three biological replicates per condition) was performed using the DESeq R package (1.18.0). DESeq provide statistical routines for determining differential expression in digital gene expression data using a model based on the negative binomial distribution. The resulting P-values were adjusted using the Benjamini and Hochberg's approach for controlling the false discovery rate. Genes with an adjusted P-value<0.05 found by DESeq were assigned as differentially expressed.

| SMILES | kinome selectivity [1] | TXNIP upregulation [2] | downregulation of RIDD genes [2] | global decrease of secretome transcripts [2] | upregulation of apoptosis genes [2] | XBP1 splicing (read coverage) ([2]; 4 hours) | XBP1 splicing (read coverage) ([2]; 24 hours) |
| --- | --- | --- | --- | --- | --- | --- | --- |
| O=S(=O)(CCC(F)(F)F)Nc1ccc(Oc2ncccc2-c2ccnc(NC3CCCNC3)n2)c2ccccc12 (centres unmarked) [KIRA9, 3,3,3-trifluoro-N-(4-(3-(2-(piperidin-3-ylamino)pyrimidin-4-yl)pyridin-2-yloxy)naphthalen-1-yl)propane-1-sulfonamide] | equivalent potency and selectivity | blocked | antagonized | blocked | largely blunted | blocked | partially decreased |
| O=S(=O)(CC(F)(F)F)Nc1ccc(Oc2ncccc2-c2ccnc(N[C@H]3CCCNC3)n2)c2ccccc12 (stereo in doubt) [PAIR1, 2,2,2-trifluoro-N-(4-(3-(2-(piperidin-3-ylamino)pyrimidin-4-yl)pyridin-2-yloxy)naphthalen-1-yl)ethanesulfonamide] | high selectivity for IRE1α | blocked | antagonized | blocked | largely blunted | preserved | preserved |
